Columns and labels:
EGFR (C797S) = EGFR (C797S) (Homo sapiens, UniProt P00533, C797S); test: EGFR (C797S) kinase activity inhibition, Lantha screen Assay; type: biochemical; settings: kinase 10 nM, ATP 0.1 μM
Description: 1. EGFR (C797S) Kinase Activity Inhibition Experiment: The Lantha screen Assay method was used to test the inhibitory activity of the compounds at a kinase EGFR (C797S) concentration of 10 nM and an ATP concentration of 0.1 μM. The control samples were Staurosporine. Experimental Steps: […] 2) Control sample Staurosporine and test samples preparation: Staurosporine and the compounds of the embodiment of the present invention are formulated into a gradient concentration solution in 100% DMSO, and diluted to 10% DMSO with the above-mentioned buffer, and added to a 384-well plate. For example, if the initial concentration of the compound is 10 μM, 100% DMSO is used to prepare a 1000 μM solution, and 10 concentration gradients are diluted, and 100 nL solution is transferred to a 384-well plate with Echo*LIQUID HANDLE RS (LABCYTE, USA). […] Transfer 5 μL to the 384-well plate and incubate with the compound for 10-15 minutes. […] Transfer 5 μL to the 384-well plate to initiate the reaction, and incubate at room temperature for 30 minutes. [table] 5) Use TR-Fret dilution buffer to prepare 2-fold detection solution. The final concentration of Antibody is 2 nM and the final concentration of EDTA is 10 mM. Transfer 10 μL of detection solution to the reaction wells of the 384-well plate, shake and mix, and incubate at room temperature for 60 min. 6) Read the ratio of excitation at 340 nm and emission at 520 nm to 495 nm on Envision, and calculate the inhibition rate. 7) Fit IC50 with XL-fit software.

ALK = ALK (Homo sapiens, UniProt Q9UM73); test: ALK kinase activity inhibition, Caliper mobility shift assay, method 1; type: biochemical
Sequence of ALK (Q9UM73 19-1620): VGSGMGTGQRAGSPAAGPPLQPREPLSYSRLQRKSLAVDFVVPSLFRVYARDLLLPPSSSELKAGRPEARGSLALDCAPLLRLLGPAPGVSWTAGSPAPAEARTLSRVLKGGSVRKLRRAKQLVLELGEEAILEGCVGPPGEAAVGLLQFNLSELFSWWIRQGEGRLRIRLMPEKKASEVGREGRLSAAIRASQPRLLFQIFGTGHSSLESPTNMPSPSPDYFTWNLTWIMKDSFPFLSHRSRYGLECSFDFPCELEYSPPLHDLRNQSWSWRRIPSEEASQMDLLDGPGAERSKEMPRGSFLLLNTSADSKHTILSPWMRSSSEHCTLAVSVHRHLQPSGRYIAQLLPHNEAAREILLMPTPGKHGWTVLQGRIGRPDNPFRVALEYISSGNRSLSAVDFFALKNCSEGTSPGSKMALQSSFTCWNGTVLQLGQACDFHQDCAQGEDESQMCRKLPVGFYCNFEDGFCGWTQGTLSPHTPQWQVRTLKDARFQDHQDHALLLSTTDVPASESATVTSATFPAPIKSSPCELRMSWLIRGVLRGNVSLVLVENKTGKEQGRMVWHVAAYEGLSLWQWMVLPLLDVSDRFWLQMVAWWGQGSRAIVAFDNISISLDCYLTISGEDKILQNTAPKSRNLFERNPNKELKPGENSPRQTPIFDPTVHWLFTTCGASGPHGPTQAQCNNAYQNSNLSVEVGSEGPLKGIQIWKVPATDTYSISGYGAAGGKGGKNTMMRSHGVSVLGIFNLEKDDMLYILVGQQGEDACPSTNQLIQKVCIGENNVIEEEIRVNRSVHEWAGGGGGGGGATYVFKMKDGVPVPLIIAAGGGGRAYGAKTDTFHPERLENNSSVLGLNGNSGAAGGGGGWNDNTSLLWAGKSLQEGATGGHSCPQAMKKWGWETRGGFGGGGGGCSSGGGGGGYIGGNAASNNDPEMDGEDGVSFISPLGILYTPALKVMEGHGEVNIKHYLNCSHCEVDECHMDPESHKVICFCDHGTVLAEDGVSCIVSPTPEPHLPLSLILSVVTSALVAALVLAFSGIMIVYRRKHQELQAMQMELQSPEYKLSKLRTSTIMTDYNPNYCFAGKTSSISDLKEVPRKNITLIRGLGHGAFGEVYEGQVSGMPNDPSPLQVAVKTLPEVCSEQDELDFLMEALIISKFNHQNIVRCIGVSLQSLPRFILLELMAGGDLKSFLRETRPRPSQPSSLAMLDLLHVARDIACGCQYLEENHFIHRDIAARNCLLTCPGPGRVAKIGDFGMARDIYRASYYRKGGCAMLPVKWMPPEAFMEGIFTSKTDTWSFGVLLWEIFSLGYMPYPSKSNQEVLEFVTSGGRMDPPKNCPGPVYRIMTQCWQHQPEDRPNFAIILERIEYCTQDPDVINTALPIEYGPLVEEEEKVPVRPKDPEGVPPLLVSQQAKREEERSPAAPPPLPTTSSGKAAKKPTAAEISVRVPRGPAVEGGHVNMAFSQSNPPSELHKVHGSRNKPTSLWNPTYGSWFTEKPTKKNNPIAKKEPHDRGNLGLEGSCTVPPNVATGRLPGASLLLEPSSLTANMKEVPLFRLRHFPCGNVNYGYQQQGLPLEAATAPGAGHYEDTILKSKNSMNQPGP
Description: 2. ALK Kinase Activity Inhibition Experiment: Method 1: In vitro enzymatic activity of ALK was measured using Caliper mobility shift assay. […] Add 10 μL of 2.5-fold enzyme solution and incubate at room temperature for 10 minutes, then add 10 μL of 2.5-fold substrates (Peptide FAM-P22 and ATP) solution. […] Read conversion rate data on Caliper EZ Reader II (Caliper Life Sciences). Convert the conversion rate into inhibition rate (% inhibition=(max−conversion rate)/(max−min)*100). Max refers to the conversion rate of the DMSO control, and min refers to the conversion rate without enzyme activity. With the compound concentration and inhibition rate on the abscissa and ordinate, draw the curve, use XLFit excel add-in version 5.4.0.8 software to fit the curve and calculate the IC50.

[1] = target: Ba/F3_EGFR del19/T790M/C797S cells (Homo sapiens, UniProt P00533, T790M/C797S, cells depend on it, form not given); test: Ba/F3_EGFR (del19-T790M-C797S) cell proliferation inhibition, CTG, method 1; type: cell-based; settings: 700 cells/well, 72 h, read-out: Ba/F3_EGFR (del19-T790M-C797S) cell proliferation inhibition (IC50 value) Method 1
Sequence of Ba/F3_EGFR del19/T790M/C797S cells (P00533 with tags, fused parts or gaps DEL746-750/T790M/C797S, form open): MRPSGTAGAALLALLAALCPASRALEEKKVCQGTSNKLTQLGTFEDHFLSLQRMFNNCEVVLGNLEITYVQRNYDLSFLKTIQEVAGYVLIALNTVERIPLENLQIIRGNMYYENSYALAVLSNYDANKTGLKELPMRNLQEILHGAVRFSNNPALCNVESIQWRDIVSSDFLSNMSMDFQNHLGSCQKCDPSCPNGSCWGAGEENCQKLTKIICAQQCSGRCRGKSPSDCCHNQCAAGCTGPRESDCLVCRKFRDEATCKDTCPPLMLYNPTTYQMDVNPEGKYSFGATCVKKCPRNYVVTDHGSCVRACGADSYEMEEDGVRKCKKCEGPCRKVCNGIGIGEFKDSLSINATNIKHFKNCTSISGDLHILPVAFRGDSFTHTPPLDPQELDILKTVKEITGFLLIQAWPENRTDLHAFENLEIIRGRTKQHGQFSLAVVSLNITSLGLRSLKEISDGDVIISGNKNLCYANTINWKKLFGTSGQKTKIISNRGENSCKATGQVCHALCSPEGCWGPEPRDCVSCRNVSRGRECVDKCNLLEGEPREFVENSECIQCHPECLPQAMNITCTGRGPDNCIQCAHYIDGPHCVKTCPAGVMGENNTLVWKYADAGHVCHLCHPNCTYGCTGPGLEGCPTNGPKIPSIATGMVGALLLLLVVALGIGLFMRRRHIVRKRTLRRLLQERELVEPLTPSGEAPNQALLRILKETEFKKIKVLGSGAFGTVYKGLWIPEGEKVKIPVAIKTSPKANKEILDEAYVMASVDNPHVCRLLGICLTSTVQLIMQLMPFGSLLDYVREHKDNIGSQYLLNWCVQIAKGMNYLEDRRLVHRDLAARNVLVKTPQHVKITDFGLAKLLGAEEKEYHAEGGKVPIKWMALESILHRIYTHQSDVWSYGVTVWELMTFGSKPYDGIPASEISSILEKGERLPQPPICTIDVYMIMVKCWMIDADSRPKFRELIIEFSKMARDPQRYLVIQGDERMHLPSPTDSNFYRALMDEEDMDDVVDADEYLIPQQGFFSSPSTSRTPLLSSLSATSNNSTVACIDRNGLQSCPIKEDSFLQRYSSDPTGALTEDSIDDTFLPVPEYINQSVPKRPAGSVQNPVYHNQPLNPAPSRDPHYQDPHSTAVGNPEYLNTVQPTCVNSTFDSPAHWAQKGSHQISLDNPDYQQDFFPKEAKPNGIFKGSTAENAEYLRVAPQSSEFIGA
Description: The cells were cultured in a 37° C., 5% CO2 incubator.
Cell plating and compound treatment: 1) Cells are routinely cultured until the cell saturation is 80%-90%, and when the number reaches the requirement, the cells are collected. 2) Resuspend in the corresponding fresh medium, take a small amount of cells to count, and prepare a cell suspension with a suitable density. 3) Inoculate the cell suspension into a 384-well plate at 700 cells/well, 30 μL per well. 4) Use Echo to add the compound to the corresponding cell well. The maximum starting concentration of the compound is 1-10 μM, 3 folds dilution, 8 concentrations.
CTG method detection: 1) Add 30 μL of CTG reagent (CelltiterGlo kit) to each well, and let it stand for 30 minutes at 37° C. and 5% CO2 in the dark. 2) Use Envision instrument to read the chemiluminescence signal value.
Data analysis: IC50 results are analyzed by GraphPad Prism 6 software. […] X: log value of compound concentration; Y: inhibition rate (% inhibition); inhibition rate (% inhibition)=(blank control well reading−compound well reading)/(blank control well reading−positive control reading)×100.

[2] = Pharmacokinetic study in rats after intragastrical administration; type: in vivo; settings: male, rat, plasma, po, SD rats, 4 mg/kg
Description: Example 55: Pharmacokinetic Study in Rats
Instruments: XEVO TQ-S LC/MS instrument produced by Waters. All measurement data is collected and processed by Masslynx V4.1 software, and the data is calculated and processed by Microsoft Excel. Using WinNonLin 8.0 software, the statistical moment method was used to calculate the pharmacokinetic parameters. Mainly include kinetic parameters Tmax, T1/2, Cmax, AUClast etc. […] Injection volume: 5 μL.
Animals: 3 male SD rats with a weight range of 200-220 g. After purchase, they will be kept in the laboratory of the Experimental Animal Center for 2 days and then used. They will be fasted for 12 hours predose and 4 hours after dosing. Drinking water is free during the test. After the rats were gavage, blood samples were taken according to the established time point.
Solvent: 0.5% Methylcellulose (aqueous solution containing 0.4% Tween 80 and 1% ethanol). Preparation of the solution for intragastrical administration: accurately weigh the compound, add it to the solvent, and ultrasonically at room temperature for 5 minutes to completely dissolve the drug, and prepare a 0.3 mg/ml medicinal solution.
Pharmaceutical samples: representative compounds of the structure shown in the patented formula (I) of the present invention, generally, multiple samples with similar structures (with a molecular weight difference of more than 2 units) are taken, accurately weighed, and administered together (cassette PK). In this way, multiple compounds can be screened at the same time and their oral absorption rates can be compared. A single administration was also used to study the pharmacokinetics of the drug sample in rats.
After intragastrical administration, blood was taken from the orbit at 0.25, 0.5, 1, 2, 4, 9, 12 and 24 hours, and placed in a plastic centrifuge tube pretreated with sodium heparin. After centrifugation, the supernatant plasma was used for LC-MS/MS analysis.
Accurately weigh the compounds to prepare different concentrations, perform quantitative analysis on mass spectrometry to establish a standard curve, and then test the concentration of the above-mentioned compound in the plasma to obtain the compound concentration at different time points. All measurement data are collected and processed by relevant software, and the statistical moment method is used to calculate the pharmacokinetic parameters (mainly including kinetic parameters Tmax, T1/2, Cmax, AUClast etc). The results are as follows:
Table 7: Pharmacokinetic Parameters of the Compounds after Intragastrical Administration in SD Rats

MAP4K1 (HPK1) = MAP4K1 (HPK1) (Homo sapiens, UniProt Q92918); test: MAP4K1 (HPK1) kinase activity inhibition, Caliper mobility shift assay; type: biochemical; settings: kinase 1.25 nM, ATP 10.1 μM
Sequence of MAP4K1 (HPK1) (Q92918 whole entry): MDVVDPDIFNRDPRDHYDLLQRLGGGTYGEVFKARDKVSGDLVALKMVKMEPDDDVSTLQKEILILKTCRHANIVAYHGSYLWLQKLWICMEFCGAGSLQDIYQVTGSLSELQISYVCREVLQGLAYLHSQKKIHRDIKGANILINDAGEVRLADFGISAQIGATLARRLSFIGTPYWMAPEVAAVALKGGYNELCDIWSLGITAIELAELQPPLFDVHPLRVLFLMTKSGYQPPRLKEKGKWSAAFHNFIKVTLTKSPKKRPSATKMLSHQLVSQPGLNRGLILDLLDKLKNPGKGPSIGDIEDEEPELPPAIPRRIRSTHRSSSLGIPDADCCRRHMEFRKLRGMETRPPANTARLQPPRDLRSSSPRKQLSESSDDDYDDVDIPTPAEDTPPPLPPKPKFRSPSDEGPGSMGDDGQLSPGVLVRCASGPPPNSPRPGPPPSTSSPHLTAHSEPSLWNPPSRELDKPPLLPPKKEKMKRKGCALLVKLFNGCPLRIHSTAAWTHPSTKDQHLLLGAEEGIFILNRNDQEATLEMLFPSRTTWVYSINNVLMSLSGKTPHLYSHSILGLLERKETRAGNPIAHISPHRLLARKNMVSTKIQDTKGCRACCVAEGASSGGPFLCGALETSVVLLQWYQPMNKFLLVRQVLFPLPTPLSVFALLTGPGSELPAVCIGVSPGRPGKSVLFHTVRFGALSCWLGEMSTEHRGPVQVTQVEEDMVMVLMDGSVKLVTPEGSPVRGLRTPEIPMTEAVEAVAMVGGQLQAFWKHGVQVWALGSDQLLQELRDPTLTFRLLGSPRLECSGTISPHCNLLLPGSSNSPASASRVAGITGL
Description: 4. MAP4K1 (HPK1) Kinase Activity Inhibition Experiment: Caliper mobility shift assay was used to detect the inhibitory effect of the compound on MAP4K1 (HPK1) kinase activity. The test concentration of the compound starts at 500 nM, and is diluted 5 folds into 5 concentration points. Use a dispenser Echo 550 to transfer 250 nL 100-fold final concentration of the compound to the target plate 3573, add 10 μL of MAP4K1 (HPK1) kinase solution with a final concentration of 1.25 nM, and incubate for 10 minutes at room temperature (the negative control well contains 10 μL kinase buffer and 250 nL 100% DMSO; the positive control well contains 10 μL kinase solution and 250 nL 100% DMSO). On the kinase MAP4K1 (HPK1), add 15 μL of ATP with a final concentration of 10.1 μM and 3 μM substrate peptide No. 25 mixed solution to react for 120 minutes. Add 30 μL of stop solution containing EDTA to stop the kinase reaction. Use Caliper EZ Reader to read the conversion rate. Inhibition rate %=(Average positive control conversion rate %−Sample conversion rate %/(Average positive control conversion rate %−Average negative control conversion rate %). Among them: negative control wells represent the conversion rate readings without enzyme activity; positive control wells represent the conversion rate readings of wells without compound inhibition. Take the log value of the concentration as the X-axis, and the percentage inhibition rate on the Y-axis. Log (inhibitor) vs. response—Variable slope of analysis software GraphPad Prism 5 was used to fit the curve to obtain the IC50 value of each compound on the enzyme activity. Calculation formula: Y=Bottom+(Top−Bottom)/(1+10 ^((Log IC50−X)*HillSlope)).

Sequence of EGFR (C797S) (P00533 25-1210 C797S): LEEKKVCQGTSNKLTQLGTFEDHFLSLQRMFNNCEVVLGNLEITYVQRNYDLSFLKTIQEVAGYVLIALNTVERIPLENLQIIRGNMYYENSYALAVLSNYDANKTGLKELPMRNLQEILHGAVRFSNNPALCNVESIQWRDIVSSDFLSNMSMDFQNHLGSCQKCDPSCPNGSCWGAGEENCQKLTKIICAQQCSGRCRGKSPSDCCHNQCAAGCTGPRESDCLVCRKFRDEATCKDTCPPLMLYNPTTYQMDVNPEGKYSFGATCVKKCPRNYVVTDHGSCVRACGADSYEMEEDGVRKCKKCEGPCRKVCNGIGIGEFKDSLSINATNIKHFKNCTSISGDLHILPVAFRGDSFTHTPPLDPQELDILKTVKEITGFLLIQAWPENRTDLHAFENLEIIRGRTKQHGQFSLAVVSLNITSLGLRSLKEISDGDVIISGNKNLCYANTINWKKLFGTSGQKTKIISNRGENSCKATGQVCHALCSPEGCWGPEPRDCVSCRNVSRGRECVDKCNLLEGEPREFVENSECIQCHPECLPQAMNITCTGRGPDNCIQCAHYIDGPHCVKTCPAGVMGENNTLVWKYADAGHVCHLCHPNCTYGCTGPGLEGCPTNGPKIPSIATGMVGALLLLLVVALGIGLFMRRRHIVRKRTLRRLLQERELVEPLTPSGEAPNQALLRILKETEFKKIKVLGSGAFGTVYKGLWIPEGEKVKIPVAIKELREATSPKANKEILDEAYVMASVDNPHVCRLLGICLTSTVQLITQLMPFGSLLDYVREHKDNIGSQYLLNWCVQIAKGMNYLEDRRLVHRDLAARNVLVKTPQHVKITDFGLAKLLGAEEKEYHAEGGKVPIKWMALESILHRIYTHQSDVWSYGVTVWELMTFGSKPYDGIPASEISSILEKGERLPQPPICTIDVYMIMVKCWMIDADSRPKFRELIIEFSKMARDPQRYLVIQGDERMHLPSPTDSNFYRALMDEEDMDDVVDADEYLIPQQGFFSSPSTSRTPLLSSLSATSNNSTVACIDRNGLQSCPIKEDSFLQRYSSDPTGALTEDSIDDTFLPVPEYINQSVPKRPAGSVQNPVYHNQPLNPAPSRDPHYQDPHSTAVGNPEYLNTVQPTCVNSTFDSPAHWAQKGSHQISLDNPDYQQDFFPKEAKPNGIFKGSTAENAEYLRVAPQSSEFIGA

Row | Structure (SMILES) | IC50 (EGFR (C797S)) [µM] | IC50 (ALK) [µM] | GI50 [1] [µM] | further results
1 | CN1CCN2c3ccc(Nc4ncc(Cl)c(Nc5ccccc5P(C)(C)=O)n4)cc3OCC2C1 (racemic) [Compound 1] | 0.001 to 0.05 | 0.001 to 0.05 | – | –
2 | CN1CCN2c3ccc(Nc4ncc(Cl)c(Nc5ccccc5P(C)(C)=O)n4)cc3OC[C@H]2C1 [Compound 1R] | 0.001 to 0.05 | 0.001 to 0.05 | < 0.02 | Cmax [2]: 0.0231 µg/mL; Tmax [2]: 1.08 h; half-life [2]: 12.7 h; AUC(0-t) ([2]; read-out: AUC0-24 h): 0.102 µg·h/mL
3 | CN1CCN2c3ccc(Nc4ncc(Cl)c(Nc5ccccc5P(C)(C)=O)n4)cc3OC[C@@H]2C1 [Compound 1S] | 0.001 to 0.05 | 0.001 to 0.05 | < 0.02 | –
4 | CP(C)(=O)c1ccccc1Nc1nc(Nc2ccc3c(c2)OC[C@H]2CN(S(=O)(=O)C4CC4)CCN32)ncc1Cl [Compound 2R] | 0.05 to 0.25 | 0.001 to 0.05 | 0.02 to 0.1 | –
5 | CP(C)(=O)c1ccccc1Nc1nc(Nc2ccc3c(c2)OC[C@H]2CN(C4CCOCC4)CCN32)ncc1Cl [Compound 3R] | 0.001 to 0.05 | 0.001 to 0.05 | 0.02 to 0.1 | –
6 | CP(C)(=O)c1ccccc1Nc1nc(Nc2ccc3c(c2)OC[C@H]2CNCCN32)ncc1Cl [Compound 4R] | 0.001 to 0.05 | 0.001 to 0.05 | 0.02 to 0.1 | –
7 | CP(C)(=O)c1ccccc1Nc1nc(Nc2ccc3c(c2)OC[C@@H]2CNCCN32)ncc1Cl [Compound 4S] | 0.001 to 0.05 | 0.001 to 0.05 | 0.02 to 0.1 | –
8 | CC(=O)N1CCN2c3ccc(Nc4ncc(Cl)c(Nc5ccccc5P(C)(C)=O)n4)cc3OC[C@H]2C1 [Compound 5R] | 0.05 to 0.25 | 0.001 to 0.05 | 0.1 to 0.2 | –
9 | C=CC(=O)N1CCN2c3ccc(Nc4ncc(Cl)c(Nc5ccccc5P(C)(C)=O)n4)cc3OC[C@H]2C1 [Compound 6R] | 0.05 to 0.25 | 0.001 to 0.05 | 0.02 to 0.1 | –
10 | C=CC(=O)N1CCN2c3ccc(Nc4ncc(Cl)c(Nc5ccccc5P(C)(C)=O)n4)cc3OC[C@@H]2C1 [Compound 6S] | 0.001 to 0.05 | 0.001 to 0.05 | 0.02 to 0.1 | –
11 | CP(C)(=O)c1ccccc1Nc1nc(Nc2ccc3c(c2)OC[C@H]2CN(CCO)CCN32)ncc1Cl [Compound 7R] | 0.05 to 0.25 | 0.001 to 0.05 | – | –
12 | CCN1CCN2c3ccc(Nc4ncc(Cl)c(Nc5ccccc5P(C)(C)=O)n4)cc3OC[C@H]2C1 [Compound 8R] | 0.001 to 0.05 | 0.001 to 0.05 | 0.02 to 0.1 | –
13 | CP(C)(=O)c1ccccc1Nc1nc(Nc2ccc3c(c2)OC[C@H]2CN(CC#N)CCN32)ncc1Cl [Compound 9R] | 0.25 to 1 | 0.001 to 0.05 | 0.02 to 0.1 | –
14 | COCCN1CCN2c3ccc(Nc4ncc(Cl)c(Nc5ccccc5P(C)(C)=O)n4)cc3OC[C@H]2C1 [Compound 10R] | 0.001 to 0.05 | 0.001 to 0.05 | 0.02 to 0.1 | –
15 | CN1CCC(N2CCN3c4ccc(Nc5ncc(Cl)c(Nc6ccccc6P(C)(C)=O)n5)cc4OC[C@H]3C2)CC1 [Compound 11R] | 0.001 to 0.05 | 0.001 to 0.05 | < 0.02 | –
16 | CP(C)(=O)c1ccccc1Nc1nc(Nc2ccc3c(c2)OC[C@H]2COCCN32)ncc1Cl [Compound 12R] | 0.05 to 0.25 | 0.05 to 0.25 | 0.02 to 0.1 | IC50 (MAP4K1 (HPK1)): ≤ 0.001 µM
17 | CP(C)(=O)c1ccccc1Nc1nc(Nc2ccc3c(c2)OC[C@@H]2COCCN32)ncc1Cl [Compound 12S] | 0.05 to 0.25 | 0.001 to 0.05 | – | –
18 | CP(C)(=O)c1ccccc1Nc1nc(Nc2ccc3c(c2)OC[C@H]2CN(CC(F)(F)F)CCN32)ncc1Cl [Compound 13R] | 0.05 to 0.25 | 0.05 to 0.25 | 0.02 to 0.1 | –
19 | CP(C)(=O)c1ccccc1Nc1nc(Nc2ccc3c(c2)OC[C@H]2CN(c4cccnc4)CCN32)ncc1Cl [Compound 15R] | 0.05 to 0.25 | 0.05 to 0.25 | – | IC50 (MAP4K1 (HPK1)): 0.001 to 0.01 µM
20 | C#CC(=O)N1CCN2c3ccc(Nc4ncc(Cl)c(Nc5ccccc5P(C)(C)=O)n4)cc3OC[C@H]2C1 [Compound 17R] | – | – | < 0.02 | –
21 | C=CS(=O)(=O)N1CCN2c3ccc(Nc4ncc(Cl)c(Nc5ccccc5P(C)(C)=O)n4)cc3OC[C@H]2C1 [Compound 19R] | – | – | < 0.02 | IC50 (MAP4K1 (HPK1)): ≤ 0.001 µM
22 | COC/C=C/C(=O)N1CCN2c3ccc(Nc4ncc(Cl)c(Nc5ccccc5P(C)(C)=O)n4)cc3OC[C@H]2C1 [Compound 20R] | – | – | 0.02 to 0.1 | –
23 | Cc1cc(Nc2ncc(Cl)c(Nc3ccccc3P(C)(C)=O)n2)cc2c1N1CCNC[C@@H]1CO2 [Compound 23R] | – | – | 0.02 to 0.1 | –
24 | Cc1cc(Nc2ncc(Cl)c(Nc3ccccc3P(C)(C)=O)n2)cc2c1OC[C@@H]1CNCCN21 [Compound 24S] | – | – | 0.02 to 0.1 | –
25 | COCCCC(=O)N1CCN2c3ccc(Nc4ncc(Cl)c(Nc5ccccc5P(C)(C)=O)n4)cc3OC[C@H]2C1 [Compound 28R] | – | – | 0.02 to 0.1 | –

Reference: patent US20220153766A1, “CONDENSED TRICYCLIC COMPOUND USED AS KINASE INHIBITOR” (Hangzhou Innogate Pharma Co., Ltd., priority 2019, published 2022)
